{"source": "patent US20050170020A1", "about": "“Using organic and / or inorganic potassium and its salts to treat autoimmune and other health disorders and methods of administering the same” (priority 2003, published 2005)", "system": "psoriasis affected scalp area", "assay": "Phenylephrine applied on psoriasis affected scalp area", "format": "in vivo, human", "details": "topical, inventor", "from_the_text": "From above it is clear that by reducing the body water loss i.e. by vasoconstriction we can control the psoriasis. To check this theory inventor has applied Phenylephrine which is used for nasal decongestant, on psoriasis affected scalp area. Phenylephrine is an Adrenergic Agent that mimics the sympathetic neurotransmitter norepinephrine (NE). […] This worked by way of reducing water loss of psoriatic skin by vasoconstriction."}
{"molecule": "CNC[C@H](O)c1cccc(O)c1", "note": "[Phenylephrine]", "values": [{"measurement": "Response of psoriatic skin", "result": "lesions reduced"}]}
